Measured values reported in patent US20130338228A1, “METHODS FOR FA[…] RECOVERY AFTER A PERIOD OF DISUSE USING BETA-HYDROXY-BETA-METHYLBUTYRATE” (ABBOTT LABORATORIES, priority 2010, published 2013).

Columns and labels:
Type in all cases: in vivo, Fischer 344× Brown Norway rats
[1] = system: soleus and plantaris muscle fibers; assay: Muscle fiber cross sectional area (CSA) by planimetry
Method: (§1) Sixty-four aged (34 months of age) Fischer 344× Brown Norway rats are randomly assigned to a hind limb suspended (HS) group or a reloaded (R) group. The rats in each test group receive either: (1) 1 ml Ca-HMB (170 mg/ml distilled water); or (2) 1 ml of distilled water by gavage feeding per day. After one week, thirty-two rats (eight rats from the HS group receiving Ca-HMB; eight rats from the R group receiving Ca-HMB; eight rats from the HS group receiving water; and eight rats from the R group receiving water) are designated as part of the control groups (HS Control Group (16 rats) or R Control Group (16 rats)). The control groups maintain normal mobility throughout the test period, and are allowed to move freely around their cages. Data is collected from the HS Control Group after 14 days from initiation of the study prior to and following sacrifice. Data is collected from the R Control Group after 28 days from initiation of the study prior to and following sacrifice.
(§2) The remaining thirty-two rats (16 rats in HS Group and 16 rats in R Group) continue to receive either Ca-HMB or water and are subjected to hind limb suspension for 14 days. For the hind limb suspension, tape is applied along the proximal one-third of the tail and then placed through a wire harness that is attached to a fishlike swivel at the top of a specially designed hind limb suspension cage. The suspension allowed the rats 360° of movement around the cage. Sterile gauze is wrapped around the tape and is subsequently covered with a thermoplastic material. […] The suspension height is monitored and adjusted to prevent contact between the hind limb and any supportive surface of the cage. […] The forelimbs maintain contact with a grid floor, which allows the animals to move, groom themselves, and obtain food and water freely.
(§3) After 14 days of hind limb suspension, the hind limbs are released. The R Group is further allowed normal cage ambulation for an additional 14 days and then data is collected prior to and following sacrifice.
Muscle fiber cross sectional area (CSA) is determined by planimetry from 750-1200 fibers that are obtained from four non-overlapping regions of each tissue cross-section is stained for lamina. Fiber CSA is calculated by the Image J software.

Bax = assay: Western immunoblot of Bax in hind limb muscles
Method: (§4) Sixty-four aged (34 months of age) Fischer 344× Brown Norway rats are randomly assigned to a hind limb suspended (HS) group or a reloaded (R) group. The rats in each test group receive either: (1) 1 ml Ca-HMB (170 mg/ml distilled water); or (2) 1 ml of distilled water by gavage feeding per day. After one week, thirty-two rats (eight rats from the HS group receiving Ca-HMB; eight rats from the R group receiving Ca-HMB; eight rats from the HS group receiving water; and eight rats from the R group receiving water) are designated as part of the control groups (HS Control Group (16 rats) or R Control Group (16 rats)). […]
(§5) The remaining thirty-two rats (16 rats in HS Group and 16 rats in R Group) continue to receive either Ca-HMB or water and are subjected to hind limb suspension for 14 days. […] The suspension height is monitored and adjusted to prevent contact between the hind limb and any supportive surface of the cage. […]
(§6) Approximately seventy-five […] of muscle is homogenized in ice-cold RIPA buffer (1% Triton x-100, 150 mM NaCl, 5 mM EDTA, 10 mM Tris; pH 7.4), containing protease inhibitors (P8340, Sigma-Aldrich, St. Louis, Mo.), and phosphatase inhibitors (P2850; P5726, Sigma-Aldrich). The muscle homogenates are centrifuged at 1000×g for 5 minutes at 4° C., and the protein content of the supernatant is measured (500-0116; BioRad, Hercules, Calif.). […]

[2] = system: satellite cells/muscle precursor cells; assay: Activation of satellite cells by BrdU labeling during reloading
Method: as §4, §5
Activated, proliferated satellite cells/muscle precursor cells were identified by immunofluorescence staining on BrdU and laminin as described previously (Siu 2005). […] The sections were finally stained with 4′,6-diamidino-2-phenylindole (DAPI) and examined under a fluorescence microscope with excitation wavelengths of 330-380 nm for DAPI blue fluorescence, 485-585 nm for Cy3 red fluorescence, and 450-490 nm for fluorescein green fluorescence. […]

Bcl-2 = assay: Western immunoblot of Bcl-2 in hind limb muscles; settings: plantaris and soleus after either hind limb suspension or reloading (both conditions increase Bcl-2 by about 100%)
Method: as §4, §5, §6

[3] = system: plantar flexor muscle group; assay: Maximal isometric force measurement after hind limb suspension and reloading
Method: as §1
(§7) The remaining thirty-two rats (16 rats in HS Group and 16 rats in R Group) continue to receive either Ca-HMB or water and are subjected to hind limb suspension for 14 days. For the hind limb suspension, tape is applied along the proximal one-third of the tail and then placed through a wire harness that is attached to a fishlike swivel at the top of a specially designed hind limb suspension cage. The suspension allowed the rats 360° of movement around the cage. […] The suspension height is monitored and adjusted to prevent contact between the hind limb and any supportive surface of the cage. […]
Force measurements: All force measurements are made while the animals are anesthetized with 98% oxygen and 2% isoflurane gas. […] The maximal isometric force of the plantar flexor muscle group is evaluated by stimulating the tibial nerve using supramaximal square wave pulses that are 4 V, 100 Hz for a duration of 3 seconds using a SD9 stimulator (Grass Medical Instruments, Quincy, Mass.). Maximal force is determined using Labview based software. […]

[4] = system: TUNEL positive myonuclei in plantaris and soleus muscles; assay: Apoptotic myonuclei identified by TUNEL labeling (apoptotic index)
Method: as §1
as §7, with “cage.” for “cage. The suspension allowed the rats 360° of movement around the cage.”
10-μm-thick frozen cross sections from soleus and plantaris muscles are mounted on charged microscope slides (Fisher Scientific, Pittsburgh, Pa.). […] The number of TUNEL- and DAPI-positive nuclei that are immediately adjacent to, or beneath, the basal lamina is counted. Data is expressed as an apoptotic index, which is calculated by counting the number of TUNEL-positive nuclei divided by the total number of nuclei (i.e., DAPI-positive nuclei). The apoptotic index is determined from ˜1200 fibers, which are obtained from four non-overlapping regions of each tissue cross section.

cleaved caspase-3 = assay: Western immunoblot of cleaved caspase-3 in hind limb muscles
Method: as §4, §5, §6

[5] = Body weight of aged rats after hind limb suspension and reloading
Method: as §1, §2, §3
(§8) Each animal is weighed at the beginning of the experiment, following 14 days of hind limb suspension and after 14 days of reloading. With the animals deeply anesthetized, the soleus and the plantaris muscles are removed from both limbs, then blotted, and weighed. Animals are euthanized following this procedure. A block obtained from the mid-belly of the muscle is embedded in optimal cutting temperature (OCT) compound (Tissue-Tek; Andwin Scientific, Addison, Ill.), snap frozen in liquid nitrogen-cooled isopentane, and stored at −80° C. The remainder of the muscle is snap frozen in liquid nitrogen and stored at −80° C. until needed for subsequent analyses.

cleaved caspase-9 = assay: Western immunoblot of cleaved caspase-9 in hind limb muscles; settings: plantaris and soleus muscles after both hind limb suspension and reloading, vs water-treated
Method: as §4, §5, §6

[6] = system: soleus and plantaris muscles; assay: Muscle wet weight after hind limb suspension and reloading
Method: as §1, §2, §3, §8

[7] = plantaris and soleus muscles after both hind limb suspension and reloading, vs water-treated
[8] = HS induced, stated for both HMB and vehicle-treated animals, P<0.001

CC(C)(O)CC(=O)O [HMB, beta-hydroxy-beta-methylbutyrate]
HS-induced decrease in fiber CSA, plantaris ([1]; after HS, p<0.05 vs vehicle): 26.4% | HS-induced decrease in fiber CSA, soleus ([1]; after HS, p<0.05 vs vehicle): 32.5% | frequency of fibers<1500 μm^2 ([1]; plantaris and soleus, recovered for 14 days following HS, Chi-squared analyses): significantly greater in the plantaris and soleus muscles of vehicle-treated animals as compared to HMB-treated animals | effect on fiber CSA after reloading as compared to HS ([1]; plantaris or soleus muscles, after 14 days of reloading): did not further improve | Bax protein abundance in control muscles (Bax; control muscles of ambulatory animals (HS Con and R Con), FIG. 7B): reduces the protein abundance | Bax protein abundance (Bax; [7]): suppresses the protein abundance | number of BrdU positive nuclei relative to vehicle-treated rats ([2]; during recovery from muscle disuse): almost twice the number | number of BrdU-positive nuclei to total nuclei ([2]; soleus, 14 day recovery period, mean+/−SE, p=0.001 vs control): 8.1+/−2% | Bcl-2 protein, difference between HMB and water-treated muscles (Bcl-2): may not be a significant difference | reduction of maximal in vivo plantarflexor isometric force by hind limb suspension ([3]; after 14 days of hind limb suspension): 23.7% | loss in maximal isometric plantarflexor force compared to isometric force in control animals ([3]; after reloading, P<0.01 vs water-treated rats): 27.3% | effect on loss of force ([3]; hind limb suspension and reloading): attenuate the loss of force | increase of apoptotic index by HS compared to ambulatory control animals, plantaris ([4]; after HS, p<0.05): 3.0 fold | increase of apoptotic index by HS compared to ambulatory control animals, soleus ([4]; after HS, p<0.05): 1.8 fold | effect on TUNEL labeling in myonuclei of reloaded muscles ([4]; reloaded plantaris and soleus muscles): continued to suppress TUNEL labeling | cleaved caspase-3 protein abundance in control muscles (cleaved caspase-3; control muscles of ambulatory animals (HS Con and R Con), FIG. 9B): reduces the protein abundance | cleaved caspase-3 protein abundance (cleaved caspase-3; [7]): suppresses the protein abundance | body weight lowered by hind limb suspension ([5]; after 14 days of hind limb suspension, stated for both the HMB and water-treated groups): about 15% | decrease in body weight compared to the body weight of control animals ([5]; after 14 days of reloading): 4% | body weight reduced relative to the first experimental day ([5]; control rats (normal mobility) treated for five weeks): 7% | body weight reduced relative to the first experimental day ([5]; control rats (normal mobility) treated for three weeks): 1.3% | cleaved caspase-9 protein abundance (cleaved caspase-9): suppresses the protein abundance | decrease in wet weight of the plantaris muscle [6, 8]: 19% | decrease in wet weight of the soleus muscle [6, 8]: 15% | effect on extent of HS-induced atrophy (muscle wet weight) ([6]; after 14 days of HS, relative to vehicle): did not significantly reduce | effect on plantaris muscle weight ([6]; after 14 days of reloading relative to vehicle-treated animals): significantly improved | effect against HS-induced loss in the soleus muscle (wet weight) ([6]; after HS, relative to vehicle-treated animals): did not provide protective effect
